ChEMBL document CHEMBL5696443 (Clin Cancer Res, 2016)
The source made the active and inactive calls. The calls are words filed in the database; no cut-off is given here.

Tests used:
[1] = molecular target: Ribosomal protein S6 kinase alpha-4 (Homo sapiens) (UniProt O75676); assay: Inhibition of human RPS6KA4 at 1 uM using GRPRTSSFAEG as substrate in presence of [gamma33P]-ATP by HotSpot assay relative to control
[2] = molecular target: Tyrosine-protein kinase receptor UFO (Homo sapiens) (UniProt P30530); assay: Inhibition of human AXL at 1 uM using poly (Glu, Tyr)4:1 as substrate in presence of [gamma33P]-ATP by HotSpot assay relative to control
Tyrosine-protein kinase receptor UFO (Homo sapiens), sequence (P30530 whole entry): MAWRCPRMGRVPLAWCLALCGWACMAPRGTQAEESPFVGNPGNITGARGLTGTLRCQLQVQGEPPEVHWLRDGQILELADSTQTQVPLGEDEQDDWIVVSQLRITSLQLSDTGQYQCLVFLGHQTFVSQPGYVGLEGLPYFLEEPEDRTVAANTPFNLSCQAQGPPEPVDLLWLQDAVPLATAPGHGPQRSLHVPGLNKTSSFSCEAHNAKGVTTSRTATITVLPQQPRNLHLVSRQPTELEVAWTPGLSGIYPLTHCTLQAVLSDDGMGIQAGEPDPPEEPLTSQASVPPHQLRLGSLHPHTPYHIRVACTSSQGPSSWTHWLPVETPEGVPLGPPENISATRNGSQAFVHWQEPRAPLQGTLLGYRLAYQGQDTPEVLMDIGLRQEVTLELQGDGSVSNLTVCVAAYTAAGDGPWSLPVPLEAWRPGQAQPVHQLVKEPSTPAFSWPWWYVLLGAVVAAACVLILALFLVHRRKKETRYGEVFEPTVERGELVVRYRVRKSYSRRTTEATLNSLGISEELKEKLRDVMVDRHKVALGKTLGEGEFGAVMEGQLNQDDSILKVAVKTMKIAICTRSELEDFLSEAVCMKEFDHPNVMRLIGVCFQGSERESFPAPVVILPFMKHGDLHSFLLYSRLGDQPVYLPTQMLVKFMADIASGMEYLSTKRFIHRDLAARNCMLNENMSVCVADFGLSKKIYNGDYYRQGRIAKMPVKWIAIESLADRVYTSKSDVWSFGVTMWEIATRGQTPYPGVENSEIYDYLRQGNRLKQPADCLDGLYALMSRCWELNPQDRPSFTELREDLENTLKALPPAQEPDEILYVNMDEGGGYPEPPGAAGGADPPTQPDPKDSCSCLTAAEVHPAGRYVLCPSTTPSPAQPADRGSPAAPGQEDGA

[3] = molecular target: Ephrin type-A receptor 4 (Homo sapiens) (UniProt P54764); assay: Inhibition of human EPHA4 at 1 uM using poly (Glu, Tyr)4:1 as substrate in presence of [gamma33P]-ATP by HotSpot assay relative to control
[4] = molecular target: Mitogen-activated protein kinase 13 (Homo sapiens) (UniProt O15264); assay: Inhibition of human MAPK13 at 1 uM using MBP as substrate in presence of [gamma33P]-ATP by HotSpot assay relative to control
[5] = molecular target: Serine/threonine-protein kinase Sgk3 (Homo sapiens) (UniProt Q96BR1); assay: Inhibition of human SGK3 at 1 uM using GRPRTSSFAEG as substrate in presence of [gamma33P]-ATP by HotSpot assay relative to control
Serine/threonine-protein kinase Sgk3 (Homo sapiens), sequence (Q96BR1 whole entry): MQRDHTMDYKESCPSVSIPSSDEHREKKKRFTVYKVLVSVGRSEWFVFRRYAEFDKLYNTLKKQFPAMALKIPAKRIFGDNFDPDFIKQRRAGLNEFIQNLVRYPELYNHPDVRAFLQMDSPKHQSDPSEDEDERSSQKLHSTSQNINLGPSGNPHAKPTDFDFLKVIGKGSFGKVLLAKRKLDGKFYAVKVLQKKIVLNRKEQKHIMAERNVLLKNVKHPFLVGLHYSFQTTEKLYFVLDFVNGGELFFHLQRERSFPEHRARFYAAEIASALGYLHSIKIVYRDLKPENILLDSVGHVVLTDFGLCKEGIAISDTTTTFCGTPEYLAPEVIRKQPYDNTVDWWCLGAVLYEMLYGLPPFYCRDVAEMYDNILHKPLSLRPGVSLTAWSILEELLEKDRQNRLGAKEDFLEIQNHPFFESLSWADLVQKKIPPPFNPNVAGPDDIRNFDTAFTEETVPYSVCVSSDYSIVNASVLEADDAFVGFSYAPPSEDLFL

[6] = molecular target: Tyrosine-protein kinase Lck (Homo sapiens, UniProt P06239); assay: Inhibition of human LCK using poly (Glu, Tyr)4:1 as substrate in presence of [gamma33P]-ATP by HotSpot assay
Tyrosine-protein kinase Lck, sequence (P06239 whole entry): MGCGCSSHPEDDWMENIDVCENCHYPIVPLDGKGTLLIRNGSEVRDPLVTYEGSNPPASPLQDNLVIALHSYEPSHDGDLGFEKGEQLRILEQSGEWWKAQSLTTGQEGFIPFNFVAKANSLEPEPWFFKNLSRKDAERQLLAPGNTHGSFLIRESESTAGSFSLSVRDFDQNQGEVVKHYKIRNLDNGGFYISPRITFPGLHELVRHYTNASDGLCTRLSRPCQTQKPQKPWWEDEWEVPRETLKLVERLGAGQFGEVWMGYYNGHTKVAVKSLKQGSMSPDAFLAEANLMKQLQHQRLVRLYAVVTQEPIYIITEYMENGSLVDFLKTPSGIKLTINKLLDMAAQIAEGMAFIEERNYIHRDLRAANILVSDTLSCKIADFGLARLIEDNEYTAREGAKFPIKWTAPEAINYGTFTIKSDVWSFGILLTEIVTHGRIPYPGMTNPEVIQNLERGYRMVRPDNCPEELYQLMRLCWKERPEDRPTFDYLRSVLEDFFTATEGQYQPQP

[7] = molecular target: Misshapen-like kinase 1 (Homo sapiens) (UniProt Q8N4C8); assay: Inhibition of human MINK1 at 1 uM using MBP as substrate in presence of [gamma33P]-ATP by HotSpot assay relative to control
cells = conditions: Homo sapiens, BaF3, 72 h
[8] = molecular target: Testis-specific serine/threonine-protein kinase 2 (Homo sapiens, UniProt Q96PF2); assay: Inhibition of human TSSK2 using KKKVSRSGLYRSPSMPENLNRPR as substrate in presence of [gamma33P]-ATP by HotSpot assay
[9] = molecular target: Serine/threonine-protein kinase DCLK2 (Homo sapiens) (UniProt Q8N568); assay: Inhibition of human DCLK2 at 1 uM using KKLNRTLSFAEPG as substrate in presence of [gamma33P]-ATP by HotSpot assay relative to control
[10] = molecular target: Proto-oncogene tyrosine-protein kinase receptor Ret (Homo sapiens, UniProt P07949, V804M); assay: Inhibition of human RET V804M mutant using RRRRRRRRRRRVYSTDYYRLFNPS as substrate in presence of [gamma33P]-ATP by HotSpot assay
[11] = molecular target: Receptor tyrosine-protein kinase erbB-2 (Homo sapiens, UniProt P04626); assay: Inhibition of human ERBB2 at 1 uM using poly (Glu, Tyr)4:1 as substrate in presence of [gamma33P]-ATP by HotSpot assay relative to control
[12] = test system: Platelet-derived growth factor receptor alpha (Homo sapiens), P16234 [T674I]; assay: Inhibition of human PDGFRalpha T674I mutant at 1 uM using poly (Glu, Tyr)4:1 as substrate in presence of [gamma33P]-ATP by HotSpot assay relative to control
[13] = molecular target: Ephrin type-A receptor 5 (Homo sapiens) (UniProt P54756); assay: Inhibition of human EPHA5 at 1 uM using poly (Glu, Tyr)4:1 as substrate in presence of [gamma33P]-ATP by HotSpot assay relative to control
Ephrin type-A receptor 5 (Homo sapiens), sequence (P54756 whole entry): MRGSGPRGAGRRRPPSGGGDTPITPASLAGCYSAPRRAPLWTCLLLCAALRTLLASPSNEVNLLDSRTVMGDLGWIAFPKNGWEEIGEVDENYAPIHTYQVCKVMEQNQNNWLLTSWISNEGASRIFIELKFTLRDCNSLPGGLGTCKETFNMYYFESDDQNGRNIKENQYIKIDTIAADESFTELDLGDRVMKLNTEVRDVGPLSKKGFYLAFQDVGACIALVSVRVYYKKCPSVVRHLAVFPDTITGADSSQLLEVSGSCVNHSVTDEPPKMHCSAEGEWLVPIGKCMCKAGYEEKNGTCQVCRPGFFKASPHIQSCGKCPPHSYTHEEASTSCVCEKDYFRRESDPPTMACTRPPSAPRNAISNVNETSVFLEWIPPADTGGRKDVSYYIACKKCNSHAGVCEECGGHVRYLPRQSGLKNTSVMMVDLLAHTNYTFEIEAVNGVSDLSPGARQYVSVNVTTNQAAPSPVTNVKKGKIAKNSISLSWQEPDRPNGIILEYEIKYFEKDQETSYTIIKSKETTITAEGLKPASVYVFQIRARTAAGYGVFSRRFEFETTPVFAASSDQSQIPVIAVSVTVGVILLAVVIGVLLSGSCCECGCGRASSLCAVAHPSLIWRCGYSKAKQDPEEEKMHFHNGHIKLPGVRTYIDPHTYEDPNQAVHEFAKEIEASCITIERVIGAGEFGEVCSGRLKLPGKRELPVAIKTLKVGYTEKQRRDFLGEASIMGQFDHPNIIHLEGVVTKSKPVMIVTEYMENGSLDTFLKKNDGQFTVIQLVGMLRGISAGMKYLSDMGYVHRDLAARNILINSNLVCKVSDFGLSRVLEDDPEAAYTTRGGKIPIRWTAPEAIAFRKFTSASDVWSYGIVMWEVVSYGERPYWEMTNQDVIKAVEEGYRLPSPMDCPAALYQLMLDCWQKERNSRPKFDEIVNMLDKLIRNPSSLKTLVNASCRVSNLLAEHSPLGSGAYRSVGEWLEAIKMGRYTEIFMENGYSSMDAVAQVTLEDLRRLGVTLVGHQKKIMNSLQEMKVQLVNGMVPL

[14] = molecular target: Ephrin type-A receptor 3 (Homo sapiens) (UniProt P29320); assay: Inhibition of human EPHA3 at 1 uM using poly (Glu, Tyr)4:1 as substrate in presence of [gamma33P]-ATP by HotSpot assay relative to control
BaF3 = assay: Antitumor activity against mouse BaF3 cells expressing native EML4-ALK implanted in mouse assessed as tumor regression at 50 mg/kg, po administered once daily and measured after 8 days relative to control; format: functional; conditions: time 8 day
[15] = molecular target: Myosin light chain kinase, smooth muscle (Homo sapiens) (UniProt Q15746); assay: Inhibition of human MYLK at 1 uM using KKLNRTLSFAEPG as substrate in presence of [gamma33P]-ATP by HotSpot assay relative to control
[16] = molecular target: Ribosomal protein S6 kinase alpha-5 (Homo sapiens) (UniProt O75582); assay: Inhibition of human RPS6KA5 at 1 uM using GRPRTSSFAEG as substrate in presence of [gamma33P]-ATP by HotSpot assay relative to control
Ribosomal protein S6 kinase alpha-5 (Homo sapiens), sequence (O75582 whole entry, looked up): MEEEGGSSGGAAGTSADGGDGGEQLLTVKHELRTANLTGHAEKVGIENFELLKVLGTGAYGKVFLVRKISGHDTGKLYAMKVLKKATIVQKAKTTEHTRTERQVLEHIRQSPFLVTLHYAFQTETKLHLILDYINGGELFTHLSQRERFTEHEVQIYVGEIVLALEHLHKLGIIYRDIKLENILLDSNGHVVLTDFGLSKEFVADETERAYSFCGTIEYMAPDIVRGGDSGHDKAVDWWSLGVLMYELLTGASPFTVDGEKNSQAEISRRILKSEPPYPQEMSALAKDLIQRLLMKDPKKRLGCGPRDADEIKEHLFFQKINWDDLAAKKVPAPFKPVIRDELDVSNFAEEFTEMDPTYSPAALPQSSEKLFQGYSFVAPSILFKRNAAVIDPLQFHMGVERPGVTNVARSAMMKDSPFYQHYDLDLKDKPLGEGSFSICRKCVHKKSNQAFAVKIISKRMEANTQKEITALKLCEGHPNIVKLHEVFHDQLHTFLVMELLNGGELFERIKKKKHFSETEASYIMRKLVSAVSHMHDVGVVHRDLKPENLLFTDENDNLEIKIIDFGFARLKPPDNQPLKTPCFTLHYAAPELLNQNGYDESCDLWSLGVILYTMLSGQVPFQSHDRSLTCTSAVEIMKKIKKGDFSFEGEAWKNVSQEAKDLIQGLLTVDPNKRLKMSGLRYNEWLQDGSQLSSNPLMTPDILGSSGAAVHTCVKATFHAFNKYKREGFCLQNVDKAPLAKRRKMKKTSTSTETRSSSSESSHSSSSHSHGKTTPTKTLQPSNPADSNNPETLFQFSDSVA

[17] = molecular target: G protein-coupled receptor kinase 4 (Homo sapiens) (UniProt P32298); assay: Inhibition of human GRK4 at 1 uM using casein as substrate in presence of [gamma33P]-ATP by HotSpot assay relative to control
KARPAS-299 = assay: Antitumor activity against ALK positive human KARPAS-299 cells xenografted in SCID beige mouse assessed as inhibition of tumor growth administered orally once daily for 14 days; format: functional, cell-based; conditions: dose 10-50 mg/kg, route po, time 14.0 day
[18] = molecular target: Fibroblast growth factor receptor 3 (Homo sapiens, UniProt P22607); assay: Inhibition of human FGFR3 using poly (Glu, Tyr)4:1 as substrate in presence of [gamma33P]-ATP by HotSpot assay
[19] = test system: EML4-ALK (Homo sapiens), Q9UM73+Q9HC35 [S1206F]; conditions: BaF3, dose 500.0 nmol/L, time 3-5 weeks
[20] = test system: EML4-ALK (Homo sapiens), Q9UM73+Q9HC35 [F1174V]; conditions: BaF3, dose 500.0 nmol/L, time 3-5 weeks
[21] = molecular target: [Pyruvate dehydrogenase (acetyl-transferring)] kinase isozyme 1, mitochondrial (Homo sapiens) (UniProt Q15118); assay: Inhibition of human PDK1 at 1 uM using MBP as substrate in presence of [gamma33P]-ATP by HotSpot assay relative to control
[22] = molecular target: cAMP-dependent protein kinase catalytic subunit PRKX (Homo sapiens) (UniProt P51817); assay: Inhibition of human PRKX at 1 uM using LRRASLG as substrate in presence of [gamma33P]-ATP by HotSpot assay relative to control
[23] = molecular target: Beta-adrenergic receptor kinase 1 (Homo sapiens) (UniProt P25098); assay: Inhibition of human ADRBK1 at 1 uM using casein as substrate in presence of [gamma33P]-ATP by HotSpot assay relative to control
[24] = molecular target: Dual specificity mitogen-activated protein kinase kinase 2 (Homo sapiens) (UniProt P36507); assay: Inhibition of human MAP2K2 at 1 uM using ERK2 as substrate in presence of [gamma33P]-ATP by HotSpot assay relative to control
[25] = molecular target: Homeodomain-interacting protein kinase 1 (Homo sapiens) (UniProt Q86Z02); assay: Inhibition of human HIPK1 at 1 uM using MBP as substrate in presence of [gamma33P]-ATP by HotSpot assay relative to control
Homeodomain-interacting protein kinase 1 (Homo sapiens), sequence (Q86Z02 whole entry, looked up): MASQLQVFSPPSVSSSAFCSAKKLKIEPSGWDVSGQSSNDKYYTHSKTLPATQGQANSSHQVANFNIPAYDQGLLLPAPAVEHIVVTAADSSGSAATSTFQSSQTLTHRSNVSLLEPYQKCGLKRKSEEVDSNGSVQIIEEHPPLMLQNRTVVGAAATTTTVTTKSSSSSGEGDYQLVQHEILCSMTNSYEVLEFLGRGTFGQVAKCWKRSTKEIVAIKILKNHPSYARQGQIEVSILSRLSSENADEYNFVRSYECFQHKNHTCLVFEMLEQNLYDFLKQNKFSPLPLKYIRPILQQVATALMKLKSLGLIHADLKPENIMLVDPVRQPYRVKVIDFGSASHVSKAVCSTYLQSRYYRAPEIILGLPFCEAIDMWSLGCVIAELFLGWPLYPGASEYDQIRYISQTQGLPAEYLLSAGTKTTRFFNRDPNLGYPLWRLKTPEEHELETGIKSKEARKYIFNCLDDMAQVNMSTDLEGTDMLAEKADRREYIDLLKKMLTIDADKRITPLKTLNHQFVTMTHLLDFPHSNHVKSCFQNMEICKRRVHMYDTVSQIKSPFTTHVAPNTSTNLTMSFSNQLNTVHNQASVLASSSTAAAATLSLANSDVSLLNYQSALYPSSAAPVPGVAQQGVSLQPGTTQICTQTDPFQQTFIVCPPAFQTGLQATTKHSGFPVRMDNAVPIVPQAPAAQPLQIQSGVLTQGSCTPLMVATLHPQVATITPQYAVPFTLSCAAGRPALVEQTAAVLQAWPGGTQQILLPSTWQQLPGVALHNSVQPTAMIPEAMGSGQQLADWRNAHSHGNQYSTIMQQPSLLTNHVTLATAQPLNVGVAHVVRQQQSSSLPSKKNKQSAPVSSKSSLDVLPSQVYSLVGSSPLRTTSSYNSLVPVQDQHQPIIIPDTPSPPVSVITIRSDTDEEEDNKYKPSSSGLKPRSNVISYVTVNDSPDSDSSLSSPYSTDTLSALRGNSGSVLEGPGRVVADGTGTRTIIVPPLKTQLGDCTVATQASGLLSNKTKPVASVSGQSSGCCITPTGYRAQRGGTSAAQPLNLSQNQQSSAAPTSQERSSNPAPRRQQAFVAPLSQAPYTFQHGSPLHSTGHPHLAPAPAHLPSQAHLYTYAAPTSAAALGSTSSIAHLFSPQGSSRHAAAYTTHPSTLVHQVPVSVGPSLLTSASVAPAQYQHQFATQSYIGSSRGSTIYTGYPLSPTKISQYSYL

In the case of `COc1cc(N2CCC(N3CCN(C)CC3)CC2)ccc1Nc1ncc(Cl)c(Nc2ccccc2P(C)(C)=O)n1` [BRIGATINIB], the inhibition [1] is reported as < 90%, the inhibition [2] is reported as < 90% and the inhibition [3] is reported as < 90%. For the same molecule, the inhibition [4] was < 90%, the inhibition [5] was < 90% and the IC50 [6] was 512 nM. The inhibition [7] was < 90%, the IC50 (cells) was 17 nM and the IC50 [8] was 138 nM. The inhibition [9] was < 90%, the IC50 [10] was 22 nM and the inhibition [11] was < 90%. The inhibition [12] was < 90%, the inhibition [13] was < 90% and the inhibition [14] was < 90%. For the same molecule, the Activity (BaF3) was 89%, the inhibition [15] was < 90% and the inhibition [16] was < 90%. The inhibition [17] was < 90%, the Activity (KARPAS-299) was “Dose-Dependent Effect” and the IC50 [18] was 358 nM. The inhibition [19] was “Active”, the inhibition [20] was “Active” and the inhibition [21] was < 90%. For the same molecule, the inhibition [22] was < 90%, the inhibition [23] was < 90% and the inhibition [24] was < 90%. The inhibition [25] was < 90%.
